Measured values from PubChem BioAssay AID1963451 (Molecular Pharmacology Branch, DTP, NCI, 2024).
Blank lines part the entries; values can stand above or below the molecule they belong to.

Tested on: 521955-158-R6-J3-PDC complex spheroid growth, % test/control
Test: Anticancer human tumor 521955-158-R6-J3-PDC patient-derived pancreatic carcinoma cell line growth inhibition [Asc]
Settings: for IC50: curve of first compound; for viability, T/C: stronger effect = lower value
Method in brief: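 Spheroid model: tumor line + HUVEC + hMSC. Single agents and combinations; top conc. at/near clinical Cmax (10 microM if undetermined), half-log dilutions. DMSO stocks at 800-fold test concentration.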

[1] = second compound 0.0316 µM, first compound 0.0316 µM
[2] = second compound 0.0316 µM, first compound 0.1 µM
[3] = second compound 0.0316 µM, first compound 0.316 µM
[4] = second compound 0.0316 µM, first compound 1 µM
[5] = second compound 0.0316 µM, first compound 3.16 µM
[6] = second compound 0.0316 µM, first compound 10 µM
[7] = second compound 0.1 µM, first compound 0.0316 µM
[8] = second compound 0.1 µM, first compound 0.1 µM
[9] = second compound 0.1 µM, first compound 0.316 µM
[10] = second compound 0.1 µM, first compound 1 µM
[11] = second compound 0.1 µM, first compound 3.16 µM
[12] = second compound 0.1 µM, first compound 10 µM
[13] = second compound 0.316 µM, first compound 0.0316 µM
[14] = second compound 0.316 µM, first compound 0.1 µM
[15] = second compound 0.316 µM, first compound 0.316 µM
[16] = second compound 0.316 µM, first compound 1 µM
[17] = second compound 0.316 µM, first compound 3.16 µM
[18] = second compound 0.316 µM, first compound 10 µM
[19] = second compound 1 µM, first compound 0.0316 µM
[20] = second compound 1 µM, first compound 0.1 µM
[21] = second compound 1 µM, first compound 0.316 µM
[22] = second compound 1 µM, first compound 1 µM
[23] = second compound 1 µM, first compound 3.16 µM
[24] = second compound 1 µM, first compound 10 µM
[25] = second compound 3.16 µM, first compound 0.0316 µM
[26] = second compound 3.16 µM, first compound 0.1 µM
[27] = second compound 3.16 µM, first compound 0.316 µM
[28] = second compound 3.16 µM, first compound 1 µM
[29] = second compound 3.16 µM, first compound 3.16 µM
[30] = second compound 3.16 µM, first compound 10 µM
[31] = second compound 10 µM, first compound 0.0316 µM
[32] = second compound 10 µM, first compound 0.1 µM
[33] = second compound 10 µM, first compound 0.316 µM
[34] = second compound 10 µM, first compound 1 µM
[35] = second compound 10 µM, first compound 3.16 µM
[36] = second compound 10 µM, first compound 10 µM
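Also: spheroids exposed to compounds for 7 days.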
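For viability, T/C in this document: 100% = DMSO vehicle control wells.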

- IC50 (second compound 0.0316 µM): 3740 nM
- IC50 (second compound 0.1 µM): 1000 nM
- IC50 (second compound 0.316 µM): 111 nM
- IC50 (second compound 1 µM): < 31.6 nM
- IC50 (second compound 3.16 µM): < 31.6 nM
- IC50 (second compound 10 µM): < 31.6 nM
Compound: C=C(F)C(=O)N1CCN(c2nc(OCC3CCCN3C)nc3c2CCN(c2cccc4cccc(Cl)c24)C3)CC1CC#N (stereo unspecified) + Cc1c(S(C)(=O)=O)c(-c2cc(F)cc(N3CCN(c4ccc(NS(=O)(=O)c5ccc(NC(CCN6CCC(C(=O)OCCCP(=O)(O)O)CC6)CSc6ccccc6)c(S(=O)(=O)C(F)(F)F)c5)cc4)CC3)c2)c(-c2ccc(Cl)cc2)n1C(C)C
- viability, T/C [1]: 79.3%
- viability, T/C [2]: 79.6%
- viability, T/C [3]: 73.5%
- viability, T/C [4]: 73.3%
- viability, T/C [5]: 59.1%
- viability, T/C [6]: 0.31%
- viability, T/C [7]: 80.3%
- viability, T/C [8]: 65.3%
- viability, T/C [9]: 58.5%
- viability, T/C [10]: 47.1%
- viability, T/C [11]: 39.6%
- viability, T/C [12]: 0.27%
- viability, T/C [13]: 57.9%
- viability, T/C [14]: 49.6%
- viability, T/C [15]: 37.9%
- viability, T/C [16]: 36.9%
- viability, T/C [17]: 23.3%
- viability, T/C [18]: 0.26%
- viability, T/C [19]: 40.1%
- viability, T/C [20]: 34.3%
- viability, T/C [21]: 28.4%
- viability, T/C [22]: 17.8%
- viability, T/C [23]: 8.04%
- viability, T/C [24]: 0.21%
- viability, T/C [25]: 18.4%
- viability, T/C [26]: 16.9%
- viability, T/C [27]: 15.8%
- viability, T/C [28]: 10%
- viability, T/C [29]: 0.82%
- viability, T/C [30]: 0.2%
- viability, T/C [31]: 13.4%
- viability, T/C [32]: 18.4%
- viability, T/C [33]: 21.8%
- viability, T/C [34]: 9.59%
- viability, T/C [35]: 0.77%
- viability, T/C [36]: 0.15%

- IC50 (second compound 0.0316 µM): > 10000 nM
- IC50 (second compound 0.1 µM): > 10000 nM
- IC50 (second compound 0.316 µM): < 31.6 nM
- IC50 (second compound 1 µM): < 31.6 nM
- IC50 (second compound 3.16 µM): < 31.6 nM
- IC50 (second compound 10 µM): < 31.6 nM
Compound: C=CC(=O)N1CCN(c2nc(=O)n(-c3c(C)ccnc3C(C)C)c3nc(-c4c(O)cccc4F)c(F)cc23)C(C)C1 (stereo unspecified) + Cc1c(S(C)(=O)=O)c(-c2cc(F)cc(N3CCN(c4ccc(NS(=O)(=O)c5ccc(NC(CCN6CCC(C(=O)OCCCP(=O)(O)O)CC6)CSc6ccccc6)c(S(=O)(=O)C(F)(F)F)c5)cc4)CC3)c2)c(-c2ccc(Cl)cc2)n1C(C)C
- viability, T/C [1]: 84.4%
- viability, T/C [2]: 84%
- viability, T/C [3]: 84.6%
- viability, T/C [4]: 80.3%
- viability, T/C [5]: 79.7%
- viability, T/C [6]: 79.7%
- viability, T/C [7]: 72.2%
- viability, T/C [8]: 72.3%
- viability, T/C [9]: 67.6%
- viability, T/C [10]: 68.4%
- viability, T/C [11]: 59.6%
- viability, T/C [12]: 50.7%
- viability, T/C [13]: 47.8%
- viability, T/C [14]: 48.4%
- viability, T/C [15]: 42.5%
- viability, T/C [16]: 46.3%
- viability, T/C [17]: 38.3%
- viability, T/C [18]: 29.2%
- viability, T/C [19]: 45.6%
- viability, T/C [20]: 36.8%
- viability, T/C [21]: 41.8%
- viability, T/C [22]: 33.7%
- viability, T/C [23]: 23.6%
- viability, T/C [24]: 19.8%
- viability, T/C [25]: 23.1%
- viability, T/C [26]: 22.8%
- viability, T/C [27]: 17.4%
- viability, T/C [28]: 15.6%
- viability, T/C [29]: 12.6%
- viability, T/C [30]: 7.39%
- viability, T/C [31]: 12.7%
- viability, T/C [32]: 9.59%
- viability, T/C [33]: 12.5%
- viability, T/C [34]: 9.66%
- viability, T/C [35]: 23.2%
- viability, T/C [36]: 8.51%

- IC50 (second compound 0.0316 µM): > 3000 nM
- IC50 (second compound 0.1 µM): > 3000 nM
- IC50 (second compound 0.316 µM): < 9.49 nM
- IC50 (second compound 1 µM): < 9.49 nM
- IC50 (second compound 3.16 µM): < 9.49 nM
- IC50 (second compound 10 µM): < 9.49 nM
Compound: CCN1C(C(=O)NC23CCC(C(=O)O)(CC2)CC3)C(c2cccc(Cl)c2F)C2(C(=O)Nc3cc(Cl)ccc32)C12CCCCC2 (stereo unspecified) + Cc1c(S(C)(=O)=O)c(-c2cc(F)cc(N3CCN(c4ccc(NS(=O)(=O)c5ccc(NC(CCN6CCC(C(=O)OCCCP(=O)(O)O)CC6)CSc6ccccc6)c(S(=O)(=O)C(F)(F)F)c5)cc4)CC3)c2)c(-c2ccc(Cl)cc2)n1C(C)C
- viability, T/C (second compound 0.0316 µM, first compound 0.00949 µM): 102%
- viability, T/C (second compound 0.0316 µM, first compound 0.03 µM): 78.8%
- viability, T/C (second compound 0.0316 µM, first compound 0.0949 µM): 72.6%
- viability, T/C (second compound 0.0316 µM, first compound 0.3 µM): 70.7%
- viability, T/C (second compound 0.0316 µM, first compound 0.949 µM): 84.2%
- viability, T/C (second compound 0.0316 µM, first compound 3 µM): 73.2%
- viability, T/C (second compound 0.1 µM, first compound 0.00949 µM): 77.7%
- viability, T/C (second compound 0.1 µM, first compound 0.03 µM): 75.7%
- viability, T/C (second compound 0.1 µM, first compound 0.0949 µM): 67.4%
- viability, T/C (second compound 0.1 µM, first compound 0.3 µM): 66.5%
- viability, T/C (second compound 0.1 µM, first compound 0.949 µM): 69.4%
- viability, T/C (second compound 0.1 µM, first compound 3 µM): 50.8%
- viability, T/C (second compound 0.316 µM, first compound 0.00949 µM): 49.2%
- viability, T/C (second compound 0.316 µM, first compound 0.03 µM): 51.8%
- viability, T/C (second compound 0.316 µM, first compound 0.0949 µM): 44%
- viability, T/C (second compound 0.316 µM, first compound 0.3 µM): 45.4%
- viability, T/C (second compound 0.316 µM, first compound 0.949 µM): 41.2%
- viability, T/C (second compound 0.316 µM, first compound 3 µM): 31.7%
- viability, T/C (second compound 1 µM, first compound 0.00949 µM): 41.2%
- viability, T/C (second compound 1 µM, first compound 0.03 µM): 25.7%
- viability, T/C (second compound 1 µM, first compound 0.0949 µM): 39.5%
- viability, T/C (second compound 1 µM, first compound 0.3 µM): 35%
- viability, T/C (second compound 1 µM, first compound 0.949 µM): 30.6%
- viability, T/C (second compound 1 µM, first compound 3 µM): 25.2%
- viability, T/C (second compound 3.16 µM, first compound 0.00949 µM): 19.7%
- viability, T/C (second compound 3.16 µM, first compound 0.03 µM): 17.3%
- viability, T/C (second compound 3.16 µM, first compound 0.0949 µM): 17.5%
- viability, T/C (second compound 3.16 µM, first compound 0.3 µM): 14.9%
- viability, T/C (second compound 3.16 µM, first compound 0.949 µM): 13.9%
- viability, T/C (second compound 3.16 µM, first compound 3 µM): 9.12%
- viability, T/C (second compound 10 µM, first compound 0.00949 µM): 14.6%
- viability, T/C (second compound 10 µM, first compound 0.03 µM): 11.3%
- viability, T/C (second compound 10 µM, first compound 0.0949 µM): 15.8%
- viability, T/C (second compound 10 µM, first compound 0.3 µM): 9.21%
- viability, T/C (second compound 10 µM, first compound 0.949 µM): 18.1%
- viability, T/C (second compound 10 µM, first compound 3 µM): 1.44%
